Results: article PMC8119466, “A screen of FDA-approved drugs identifies inhibitors of protein tyrosine phosphatase 4A3 (PTP4A3 or PRL-3)” (Scientific Reports, 2021)
Structures can show the parent of a compound that is named as a salt. Where two headings read alike, the source gives them in different places.

How the values were obtained:
Type in all cases: biochemical
recombinant PRL-2 = molecular target: T1, recombinant PRL-2 (Homo sapiens, UniProt Q12974); test: In vitro phosphatase assay (DiFMUP hydrolysis), PRL-2;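 also: PRL-2 activity read as DiFMUP hydrolysis after 20 min at room temperature with drug, enzyme first pre-reduced at 4 °C for 20 min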
T1 construct: 6xHis (N, cleaved yes); made in house; host or cells: E. coli One Shot BL21 Star
T1 sequence (Q12974 1-167): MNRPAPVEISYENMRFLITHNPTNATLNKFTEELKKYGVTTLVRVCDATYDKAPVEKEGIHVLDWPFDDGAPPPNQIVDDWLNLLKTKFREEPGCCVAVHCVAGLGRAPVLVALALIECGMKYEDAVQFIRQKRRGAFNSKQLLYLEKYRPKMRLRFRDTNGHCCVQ

recombinant PRL-3 = molecular target: T2, recombinant PRL-3 (Homo sapiens, UniProt O75365); test: In vitro phosphatase assay (DiFMUP hydrolysis), PRL-3; also: test concentration or dose not given here
T2 construct: 6xHis (N, cleaved yes); made in house; host or cells: E. coli One Shot BL21 Star
T2 sequence (O75365 whole entry): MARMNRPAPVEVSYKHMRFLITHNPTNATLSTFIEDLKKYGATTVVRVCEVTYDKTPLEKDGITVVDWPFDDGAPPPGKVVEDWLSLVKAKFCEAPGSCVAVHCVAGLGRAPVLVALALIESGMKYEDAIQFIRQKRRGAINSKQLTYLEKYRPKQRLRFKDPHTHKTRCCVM

recombinant PRL-1 = molecular target: T3, recombinant PRL-1 (Homo sapiens, UniProt Q93096); test: In vitro phosphatase assay (DiFMUP hydrolysis), PRL-1; also: test concentration or dose not given here
T3 construct: 6xHis (N, cleaved yes); made in house; host or cells: E. coli One Shot BL21 Star
T3 sequence (Q93096 1-173): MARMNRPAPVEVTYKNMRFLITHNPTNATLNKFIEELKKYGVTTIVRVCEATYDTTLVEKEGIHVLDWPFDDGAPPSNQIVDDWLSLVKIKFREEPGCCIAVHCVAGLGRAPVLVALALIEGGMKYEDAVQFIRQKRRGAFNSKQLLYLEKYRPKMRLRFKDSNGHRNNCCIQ

[1] = FDA-approved drug screen, compared to DMSO
[2] = FDA-approved drug screen, activity compared to DMSO

Compound | % Phosphatase Activity (compared to DMSO) PRL-2 (recombinant PRL-2; [1]) [%] | % Phosphatase Activity (compared to DMSO) PRL-3 (recombinant PRL-3; [1]) [%] | % Phosphatase Activity (compared to DMSO) PRL-1 (recombinant PRL-1; [1]) [%] | other results
COc1ccc(/C=C\c2cc(OC)c(OC)c(OC)c2)cc1OP(=O)([O-])[O-].[Na+].[Na+] | 76 | 109 | 88 | 
CCCC(CCC)C(=O)[O-].[Na+] |  |  |  | % Phosphatase Activity (compared to DMSO) PRL-2 (recombinant PRL-2; [2]): 75%; % Phosphatase Activity (compared to DMSO) PRL-3 (recombinant PRL-3; [2]): 77%; % Phosphatase Activity (compared to DMSO) PRL-1 (recombinant PRL-1; [2]): 86%
17-Hydroxyprogesterone | 77 | 86 | 86 | 
OC[C@H]1O[C@@H](O[C@@H]2[C@@H](CO)OC(O)(CO)[C@H]2O)[C@H](O)[C@@H](O)[C@H]1O (mixture of isomers) [Lactulose] | 115 | 85 | 104 | 
CN(N=O)C(=O)N[C@H]1C(O)O[C@H](CO)[C@@H](O)[C@@H]1O (mixture of isomers) [Streptozotocin (STZ)] |  |  |  | % Phosphatase Activity (compared to DMSO) PRL-2 (recombinant PRL-2; [2]): 88%; % Phosphatase Activity (compared to DMSO) PRL-3 (recombinant PRL-3; [2]): 78%; % Phosphatase Activity (compared to DMSO) PRL-1 (recombinant PRL-1; [2]): 96%
Cl.NCC(O)c1ccc(O)cc1 (racemic) [(+,-)-Octopamine HCl] | 102 | 78 | 110 | 
O=C1C(CC[S+]([O-])c2ccccc2)C(=O)N(c2ccccc2)N1c1ccccc1 (racemic) [(+/-)-Sulfinpyrazone] | 95 | 82 | 88 | 
COC(=O)C1=C(C)NC(C)=C(C(=O)O[C@@H]2CCCN(Cc3ccccc3)C2)[C@@H]1c1cccc([N+](=O)[O-])c1.Cl (racemic) [Benidipine HCl] | 107 | 94 | 91 | 
C[N+](C)(C)CC(O)CC(=O)O.[Cl-] (racemic) [DL-Carnitine HCl] | 94 | 85 | 100 | 
CC(C)(CO)C(O)C(=O)NCCCO (racemic) [DL-Panthenol] | 91 | 82 | 109 | 
CC(CCc1ccc(O)cc1)NCC(O)c1ccc(O)cc1.Cl (racemic) [Ractopamine HCl] | 113 | 100 | 103 | 
Cl.N[C@@H]1C[C@H]1c1ccccc1 (racemic) [Tranylcypromine (2-PCPA) HCl] |  |  |  | % Phosphatase Activity (compared to DMSO) PRL-2 (recombinant PRL-2): 110%; % Phosphatase Activity (compared to DMSO) PRL-3 (recombinant PRL-3): 87%; % Phosphatase Activity (compared to DMSO) PRL-1 (recombinant PRL-1): 111%
c1ccc(C2CN3CCSC3=N2)cc1 (single isomer, unassigned; (-)) [(-)-Tetramisole] |  |  |  | % Phosphatase Activity (compared to DMSO) PRL-2 (recombinant PRL-2): 92%; % Phosphatase Activity (compared to DMSO) PRL-3 (recombinant PRL-3): 99%; % Phosphatase Activity (compared to DMSO) PRL-1 (recombinant PRL-1): 93%
NC(=O)CCC(N)C(=O)O (stereo in doubt) [D-glutamine] | 80 | 94 | 96 | 
COc1ccc(C(=O)c2ccccc2O)c(O)c1 [2,2′-Dihydroxy-4-methoxybenzophenone] | 107 | 79 | 90 | 
CC1(C)OC(=O)NC1=O [5,5-Dimethyloxazolidine-2,4-dione] | 94 | 82 | 94 | 
Cl.NCC(=O)CCC(=O)O [5-Aminolevulinic acid HCl] | 130 | 86 | 106 | 
Oc1c(I)cc(Cl)c2cccnc12 [5-Chloro-8-hydroxy-7-iodoquinoline] | 90 | 71 | 96 | 
O.S=c1[nH]cnc2nc[nH]c12 [6-Mercaptopurine (6-MP) Monohydrate] | 108 | 85 | 95 | 
COc1cc(Nc2c(C#N)cnc3cc(OCCCN4CCN(C)CC4)c(OC)cc23)c(Cl)cc1Cl [Bosutinib (SKI-606)] |  | 82 | 94 | 
CCN(CC)CCCC(C)Nc1ccnc2cc(Cl)ccc12 (stereo not shown) [Chloroquine Phosphate] | 115 |  | 104 | 
CN/C(=N/CCSCc1nc[nH]c1C)NC#N [Cimetidine] |  |  |  | % Phosphatase Activity (compared to DMSO) PRL-3 (recombinant PRL-3): 112%; % Phosphatase Activity (compared to DMSO) PRL-1 (recombinant PRL-1): 96%
C=CCN1CC[C@]23c4c5ccc(O)c4O[C@H]2C(=O)CC[C@@]3(O)[C@H]1C5 [Naloxone HCl] | 123 |  | 105 | 
Nc1nc2[nH]cc(CCc3ccc(C(=O)N[C@@H](CCC(=O)[O-])C(=O)[O-])cc3)c2c(=O)[nH]1.Nc1nc2[nH]cc(CCc3ccc(C(=O)N[C@@H](CCC(=O)[O-])C(=O)[O-])cc3)c2c(=O)[nH]1.O.O.O.O.O.[Na+].[Na+].[Na+].[Na+] [Pemetrexed Disodium Hydrate] | 101 | 108 |  | 

Compound | % Phosphatase Activity (compared to DMSO) PRL-2 (recombinant PRL-2; [1]) [%] | % Phosphatase Activity (compared to DMSO) PRL-3 (recombinant PRL-3; [1]) [%] | % Phosphatase Activity (compared to DMSO) PRL-1 (recombinant PRL-1; [1]) [%] | other results
CC1(C)S[C@@H]2[C@H](NC(=O)Cc3ccccc3)C(=O)N2[C@H]1C(=O)O [Penicillin G Sodium] | 105 | 75 |  | 
CCOc1ccc(NC(C)=O)cc1 [Phenacetin] | 114 | 81 |  | 
O=C1NC(=O)C(c2ccccc2)(c2ccccc2)N1 [Phenytoin] |  | 84 | 104 | 
CC(C)N(CCNC(=O)CN1CCCC1=O)C(C)C [Pramiracetam] | 88 | 88 |  | 
CCc1nc(N)nc(N)c1-c1ccc(Cl)cc1 [Pyrimethamine] | 109 | 89 |  | 
CN1[C@@H]2C[C@@H](OC(=O)[C@H](CO)c3ccccc3)C[C@H]1[C@@H]1O[C@@H]12 [Scopolamine HBr] |  | 77 | 91 | 
Nc1ccc(S(=O)(=O)Nc2ncccn2)cc1 [Sulfadiazine] |  |  |  | % Phosphatase Activity (compared to DMSO) PRL-3 (recombinant PRL-3): 103%; % Phosphatase Activity (compared to DMSO) PRL-1 (recombinant PRL-1): 105%
Cc1ccnc(NS(=O)(=O)c2ccc(N)cc2)n1 [Sulfamerazine] |  |  |  | % Phosphatase Activity (compared to DMSO) PRL-2 (recombinant PRL-2; [2]): 108%; % Phosphatase Activity (compared to DMSO) PRL-3 (recombinant PRL-3; [2]): 83%
Nc1ccc(S(N)(=O)=O)cc1 [Sulfanilamide] |  |  |  | % Phosphatase Activity (compared to DMSO) PRL-2 (recombinant PRL-2; [2]): 92%; % Phosphatase Activity (compared to DMSO) PRL-3 (recombinant PRL-3; [2]): 77%
Nc1c2c(nc3ccccc13)CCCC2 [Tacrine HCl] |  |  |  | % Phosphatase Activity (compared to DMSO) PRL-2 (recombinant PRL-2): 89%; % Phosphatase Activity (compared to DMSO) PRL-3 (recombinant PRL-3): 89%
CC/C(=C(\c1ccccc1)c1ccc(OCCN(C)C)cc1)c1ccccc1 [Tamoxifen] |  |  |  | % Phosphatase Activity (compared to DMSO) PRL-2 (recombinant PRL-2; [2]): 110%; % Phosphatase Activity (compared to DMSO) PRL-3 (recombinant PRL-3; [2]): 81%
CN1CCC(COc2cnc(-c3cccc(Cn4nc(-c5cccc(C#N)c5)ccc4=O)c3)nc2)CC1 [Tepotinib (EMD 1214063)] |  |  |  | % Phosphatase Activity (compared to DMSO) PRL-2 (recombinant PRL-2; [2]): 110%; % Phosphatase Activity (compared to DMSO) PRL-3 (recombinant PRL-3; [2]): 113%
CN(C/C=C/C#CC(C)(C)C)Cc1cccc2ccccc12 [Terbinafine] |  |  |  | % Phosphatase Activity (compared to DMSO) PRL-2 (recombinant PRL-2; [2]): 122%; % Phosphatase Activity (compared to DMSO) PRL-3 (recombinant PRL-3; [2]): 84%
CN1CCN(CCCN2c3ccccc3Sc3ccc(C(F)(F)F)cc32)CC1.Cl.Cl [Trifluoperazine 2HCl] |  |  |  | % Phosphatase Activity (compared to DMSO) PRL-3 (recombinant PRL-3; [2]): 100%; % Phosphatase Activity (compared to DMSO) PRL-1 (recombinant PRL-1; [2]): 103%
COc1cc(Cc2cnc(N)nc2N)cc(OC)c1OC [Trimethoprim] |  |  |  | % Phosphatase Activity (compared to DMSO) PRL-2 (recombinant PRL-2): 107%; % Phosphatase Activity (compared to DMSO) PRL-3 (recombinant PRL-3): 79%
CN1[C@@H]2CC[C@H]1C[C@@H](OC(=O)c1c[nH]c3ccccc13)C2 [Tropisetron] |  |  |  | % Phosphatase Activity (compared to DMSO) PRL-2 (recombinant PRL-2; [2]): 100%; % Phosphatase Activity (compared to DMSO) PRL-3 (recombinant PRL-3; [2]): 93%
C[C@@H](c1ncncc1F)[C@](O)(Cn1cncn1)c1ccc(F)cc1F [Voriconazole] |  |  |  | % Phosphatase Activity (compared to DMSO) PRL-2 (recombinant PRL-2; [2]): 92%; % Phosphatase Activity (compared to DMSO) PRL-3 (recombinant PRL-3; [2]): 86%
OC[C@@H](O)[C@H](O)[C@@H](O)CO [Xylitol] |  |  |  | % Phosphatase Activity (compared to DMSO) PRL-2 (recombinant PRL-2; [2]): 99%; % Phosphatase Activity (compared to DMSO) PRL-3 (recombinant PRL-3; [2]): 96%
Bleomycin Sulfate | 100 | 64 |  | 
Colistin Sulfate |  | 120 | 91 | 
Gentamicin Sulfate | 96 |  | 95 | 
L-Adrenaline |  |  |  | % Phosphatase Activity (compared to DMSO) PRL-2 (recombinant PRL-2): 98%; % Phosphatase Activity (compared to DMSO) PRL-3 (recombinant PRL-3): 71%
Maraviroc |  | 93 | 82 | 
Polymyxin B sulphate |  | 98 | 98 | 
